Test results as given in US10934326B2, “Peripheral modifications on pocket-redesigned vancomycin analogs synergistically improve antimicrobial potency and durability” (priority 2016, dated 2021).
≈ marks a conversion by molar mass, not a printed value.

Tests used:
[1] = tested on: Enterococcus faecium (VanA VRE, ATCC BAA-2317); assay: In vitro antimicrobial assay (MIC), VanA E. faecium; format: cell-based; conditions: for MIC: Enterococcus faecium, read-out: Antimicrobial Activity, MIC, VanA E. faecium; for antibiotic susceptibility profile of the strain: VanA E. faecium ATCC BAA-2317
Description: (§1) One day before a study was run, fresh cultures of vancomycin-sensitive Staphylococcus aureus (VSSA strain ATCC 25923), methicillin and oxacillin-resistant Staphylococcus aureus subsp. aureus (MRSA strain ATCC 43300), vancomycin-resistant Enterococcus faecalis (VanA VRE, BM4166), Enterococcus faecium (VanA VRE, ATCC BAA-2317), vancomycin-resistant Enterococcus faecalis (VanB VRE, strain ATCC 51299), Escherichia coli (ATCC 25922), Acinetobacter baumannii (ATCC BAA-1710), Pseudomonas aeruginosa (ATCC 15442), Klebsiella pneumoniae (ATCC 700603) were inoculated and grown in an orbital shaker at 37° C. in 100% Mueller-Hinton broth (VSSA, MRSA and VanB VRE), 100% brain-heart infusion broth (VanA VRE, A. baumannii and K. pneumoniae) or 100% Luria broth (E. coli and P. aeruginosa). After 24 hours, the bacterial stock solutions were serially diluted with the culture medium (10% Mueller-Hinton broth for VSSA, MRSA and VanB VRE or 10% brain-heart infusion broth for VanA VRE A. baumannii and K. pneumoniae or 10% Luria Broth for E. coli and P. aeruginosa) to achieve a turbidity equivalent to a 1:100 dilution of a 0.5 M McFarland solution. This diluted bacterial stock solution was then inoculated in a 96-well V-shaped glass coated microtiter plate, supplemented with serial diluted aliquots of the antibiotic solution in DMSO (4 μL), to achieve a total assay volume of 0.1 mL. The plate was then incubated at 37° C. for 18 hours, after which minimal inhibitory concentrations (MICs) were determined by monitoring the cell growth (observed as a pellet) in the wells.
(§2) The lowest concentration of antibiotic (in μg/mL) capable of eliminating cell growth in the wells is the reported MIC value. The reported MIC values for the vancomycin analogues were determined against vancomycin as a standard in the first well.*
(§3) [*Clinical and Laboratory Standards Institute. Methods for Dilution Antimicrobial Susceptibility Tests for Bacteria That Grow Aerobically; Approved Standard, 7th ed.; CLSI document M07-A8; Clinical and Laboratory Standards Institute: Wayne, Pa., 2009.]

[2] = tested on: VanA VRE (E. faecalis BM 4166 and E. faecium ATCC BAA-2317); assay: Cell wall permeability assay (propidium iodide uptake); format: cell-based, Enterococcus faecalis; Enterococcus faecium
Description: The effect of the compounds on cell membrane permeability was examined by measuring cytoplasmic membrane uptake of the fluorescent probe propidium iodide in the same VanA vancomycin-resistant E. faecalis (BM 4166) and E. faecium (ATCC BAA-2317) strains. This fluorescent probe only enters cells with permeabilized cell membranes and is detected by the emission of fluorescence upon intracellular nucleic acid binding [Boulos et al., J Microbiol Methods 1999, 37(1):77-86].
Fresh, mid-log phase VanA VRE in pH 7.2 buffer at 25° C. were preincubated with propidium iodide (10 μM) for 5 minutes before the test compounds were added, monitoring the fluorescence emission at 617 nm (excitation at 535 nm) over time, both pre (5 minutes) and post (15 minutes) compound addition. Rapid and sustained increases in fluorescence intensity are observed immediately upon addition of test compounds that induce bacterial cell membrane permeability.
One day before a study was run, cultures of vancomycin-resistant Enterococcus faecalis (VanA VRE, BM4166) and Enterococcus faecium (VanA VRE, ATCC BAA-2317), were inoculated and grown in an orbital shaker at 37° C. in 100% brain-heart infusion broth for 12 hours. The above bacterial solution was subjected to a subculture to obtain fresh mid-log phase bacterial cells (total volume of bacterial suspension=7 mL, incubation time=6 hours, OD600=0.6). After the cultured bacteria were harvested (3000 rpm, 4° C., 20 minutes), the white bacterial precipitate was washed and resuspended in 5 mM glucose and 5 mM HEPES buffer (1:1, 500 μL, pH=7.2).
This bacterial suspension (130 μL) was charged into a 96-well black plate with a clear bottom (Corning 3650). The propidium iodide dye (10 μL, 150 μM DMSO solution) was added to the above suspension and the fluorescence was monitored at 25° C. for 5 minutes at 30 second intervals using a microplate reader (Molecular Devices®, Max Gemini EX) at an excitation wavelength of 535 nm and an emission wavelength of 617 nm. The test compound (150 μM, 10 μL) was added to the cell suspension and the fluorescence was monitored at 25° C. for an additional 15 minutes.

[3] = tested on: vancomycin-resistant Enterococcus faecalis (VanA VRE, BM4166); assay: In vitro antimicrobial assay (MIC), VanA E. faecalis; format: cell-based; conditions: for MIC: Enterococcus faecalis, VRE, read-out: Antimicrobial Activity, MIC, VanA E. faecalis; for antibiotic susceptibility profile of the strain: VanA E. faecalis BM 4166
Description: as §1, §2, §3

[4] = tested on: vancomycin-resistant Enterococcus faecalis (VanA VRE, BM4166); conditions: BM 4166; previously reported data; cited from earlier work
[5] = tested on: Enterococcus faecium (VanA VRE, ATCC BAA-2317); conditions: previously reported data; cited from earlier work

| Compound | MIC [1] | MIC [3] | antibiotic susceptibility profile of the strain [1] | also measured |
| --- | --- | --- | --- | --- |
| CN[C@H](CC(C)C)C(=O)N[C@H]1C(=O)N[C@@H](CC(N)=O)C(=O)N[C@H]2C(=O)N[C@@H]3C(=O)N[C@H](C(=O)N[C@H](C(=O)NCCCN(C)C)c4cc(O)cc(O)c4-c4cc3ccc4O)[C@H](O)c3ccc(c(Cl)c3)Oc3cc2cc(c3OC2OC(CO)C(O)[C@H](O)[C@@H]2O[C@H]2CC(C)(N)[C@H](O)[C@H](C)O2)Oc2ccc(cc2Cl)[C@H]1O (stereo partly drawn) [Compound 9] | 500 µg/mL (≈ 326 µM) | 500 µg/mL (≈ 326 µM) |  | induced cell membrane permeability (propidium uptake) ([2]; 10 μM compound): did not do so |
| CC[C@H]1OC(=O)[C@H](C)[C@@H](O[C@H]2C[C@@](C)(OC)[C@@H](O)[C@H](C)O2)[C@H](C)[C@@H](O[C@@H]2O[C@H](C)C[C@H](N(C)C)[C@H]2O)[C@](C)(O)C[C@@H](C)C(=O)[C@H](C)[C@@H](O)[C@]1(C)O [erythromycin] |  |  | resistant | antibiotic susceptibility profile of the strain [3]: resistant |
| O=C(N[C@H](CO)[C@H](O)c1ccc([N+](=O)[O-])cc1)C(Cl)Cl [chloramphenicol] |  |  |  | antibiotic susceptibility profile of the strain [3]: resistant |
| CC1(C)S[C@@H]2[C@H](NC(=O)Cc3ccccc3)C(=O)N2[C@H]1C(=O)O [benzylpenicillin] |  |  | resistant |  |
| CNC(CC(C)C)C(=O)NC1C(=O)NC(CC(N)=O)C(=O)NC2C(=N)NC3C(=O)NC(C(=O)NC(C(=O)O)c4cc(O)cc(O)c4-c4cc3ccc4O)C(O)c3ccc(c(Cl)c3)Oc3cc2cc(c3OC2OC(CO)C(O)C(O)C2OC2CC(C)(N)C(O)C(C)O2)Oc2ccc(cc2Cl)[C@@H]1O (stereo partly drawn) [Compound 3] |  |  |  | Antimicrobial Activity, MIC, VanA E. faecalis [4]: 0.5 µg/mL; Antimicrobial Activity, MIC, VanA E. faecium [5]: 0.5 µg/mL |
| teicoplanin |  |  | resistant | antibiotic susceptibility profile of the strain [3]: resistant |
| CN[C@H](CC(C)C)C(=O)N[C@H]1C(=O)N[C@@H](CC(N)=O)C(=O)N[C@H]2C(=O)N[C@@H]3C(=O)N[C@H](C(=O)N[C@H](C(=O)NCCCN(C)C)c4cc(O)cc(O)c4-c4cc3ccc4O)[C@H](O)c3ccc(c(Cl)c3)Oc3cc2cc(c3OC2OC(CO)C(O)[C@H](O)[C@@H]2O[C@H]2CC(C)(NCc3ccc(-c4ccc(Cl)cc4)cc3)[C@H](O)[C@H](C)O2)Oc2ccc(cc2Cl)[C@H]1O (stereo partly drawn) [Compound 14] | 5 µg/mL (≈ 2.88 µM) | 5 µg/mL (≈ 2.88 µM) |  |  |
| CC1(C)S[C@@H]2[C@H](NC(=O)[C@H](N)c3ccccc3)C(=O)N2[C@H]1C(=O)O [ampicillin] |  |  | resistant |  |
| CN[C@H](CC(C)C)C(=O)N[C@H]1C(=O)N[C@@H](CC(N)=O)C(=O)N[C@H]2C(=O)N[C@@H]3C(=O)N[C@H](C(=O)N[C@H](C(=O)NCCC[N+](C)(C)C)c4cc(O)cc(O)c4-c4cc3ccc4O)[C@H](O)c3ccc(c(Cl)c3)Oc3cc2cc(c3OC2OC(CO)C(O)[C@H](O)[C@@H]2O[C@H]2CC(C)(N)[C@H](O)[C@H](C)O2)Oc2ccc(cc2Cl)[C@H]1O (stereo partly drawn) [Compound 10] | 126 µg/mL | 63 µg/mL |  | induced cell membrane permeability (propidium uptake) ([2]; 10 μM compound): did not do so; induced cell membrane permeability (propidium uptake) ([2]; 100 μM compound): exhibited this induced permeability |
| CCN(CC)CCS(=O)(=O)[C@@H]1CCN2C(=O)c3coc(n3)CC(=O)C[C@H](O)/C=C(C)/C=C/CNC(=O)/C=C/[C@@H](C)[C@@H](C(C)C)OC(=O)[C@@H]12 [dalfopristine] |  |  | sensitive |  |
| CN[C@H](CC(C)C)C(=O)N[C@H]1C(=O)N[C@@H](CC(N)=O)C(=O)N[C@H]2C(=O)N[C@@H]3C(=O)N[C@H](C(=O)N[C@H](C(=O)NCCC[N+]4(C)CCCC4)c4cc(O)cc(O)c4-c4cc3ccc4O)[C@H](O)c3ccc(c(Cl)c3)Oc3cc2cc(c3OC2OC(CO)C(O)[C@H](O)[C@@H]2O[C@H]2CC(C)(NCc3ccc(-c4ccc(Cl)cc4)cc3)[C@H](O)[C@H](C)O2)Oc2ccc(cc2Cl)[C@H]1O (stereo partly drawn) [Compound 16] | 2 µg/mL | 2 µg/mL |  |  |
| CN[C@H](CC(C)C)C(=O)N[C@H]1C(=O)N[C@@H](CC(N)=O)C(=O)N[C@H]2C(=O)N[C@@H]3C(=O)N[C@H](C(=O)N[C@H](C(=O)NCCC[N+]4(C)CCCC4)c4cc(O)cc(O)c4-c4cc3ccc4O)[C@H](O)c3ccc(c(Cl)c3)Oc3cc2cc(c3OC2OC(CO)C(O)[C@H](O)[C@@H]2O[C@H]2CC(C)(N)[C@H](O)[C@H](C)O2)Oc2ccc(cc2Cl)[C@H]1O (stereo partly drawn) [Compound 11] | 2 µg/mL | 4 µg/mL |  | induced cell membrane permeability (propidium uptake) ([2]; 10 μM compound): produced pronounced, rapid cell membrane permeability |
| CCCCCCCCCCCCCC[N+](C)(C)CCCNC(=O)[C@H]1NC(=O)[C@H]2NC(=O)[C@@H](NC(=O)[C@@H]3NC(=O)[C@H](CC(N)=O)NC(=O)[C@H](NC(=O)[C@@H](CC(C)C)NC)[C@H](O)c4ccc(c(Cl)c4)Oc4cc3cc(c4OC3OC(CO)C(O)[C@H](O)[C@@H]3O[C@H]3CC(C)(NCc4ccc(-c5ccc(Cl)cc5)cc4)[C@H](O)[C@H](C)O3)Oc3ccc(cc3Cl)[C@H]2O)c2ccc(O)c(c2)-c2c(O)cc(O)cc21 (stereo partly drawn) [Compound 17] | 2 µg/mL | 2 µg/mL |  |  |
| gentamicin |  |  |  | antibiotic susceptibility profile of the strain [3]: resistant |
